Laboratory results taken from US12252524B2, “GIP/GLP1 co-agonist compounds” (Eli Lilly and Company, priority 2018, dated 2025).
Numbered stars: 1 amine (or outer) side, 2 acyl side, 3 side chain; on linkers, the order of the positions; unused ones are H or OH. Square brackets hold non-standard residues; d marks the D form. Side chains are listed from the residue outwards. Peptide text beside a SMILES is read from it. * marks the point of attachment. C20 diacid = O=C(O)CCCCCCCCCCCCCCCCCCC(=O)*; γGlu = O=C(O)[C@H](CCC(=O)[*:2])N[*:1]; AEEA = NCCOCCOCC(=O)O; Aib = CC(C)(N)C(=O)O

Key:
[1] = biological target: human GLP-1 receptor (GLP-1R) (Homo sapiens, UniProt P43220); experiment: cAMP pharmacological functional assay in presence of casein, hGLP-1R; assay type: cell-based; conditions: HEK293 cells expressing hGLP-1R, 0.1% Casein, geometric mean; read-out: hGLP1R cAMP Rel EC50 nM (SEM, n)
Sequence of human GLP-1 receptor (GLP-1R) (P43220 24-463): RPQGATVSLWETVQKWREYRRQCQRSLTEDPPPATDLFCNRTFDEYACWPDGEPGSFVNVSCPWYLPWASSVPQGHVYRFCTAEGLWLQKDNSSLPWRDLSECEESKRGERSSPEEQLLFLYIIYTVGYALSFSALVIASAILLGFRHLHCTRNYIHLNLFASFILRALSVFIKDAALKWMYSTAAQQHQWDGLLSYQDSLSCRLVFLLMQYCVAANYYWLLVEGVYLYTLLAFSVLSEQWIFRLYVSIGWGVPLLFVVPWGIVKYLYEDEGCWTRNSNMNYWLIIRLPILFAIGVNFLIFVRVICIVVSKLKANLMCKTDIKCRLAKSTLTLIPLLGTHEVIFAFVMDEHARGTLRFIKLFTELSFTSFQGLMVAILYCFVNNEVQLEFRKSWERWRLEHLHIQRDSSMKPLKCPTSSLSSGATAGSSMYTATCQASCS

[2] = biological target: T1, gastric inhibitory peptide receptor (GIPR) (Homo sapiens, UniProt P48546); experiment: cAMP pharmacological functional assay in presence of casein, hGIPR; assay type: cell-based; conditions: HEK293 cells expressing hGIPR, 0.1% Casein, geometric mean; read-out: hGIPR cAMP Rel EC50 nM (SEM, n)
T1 sequence (P48546 22-466): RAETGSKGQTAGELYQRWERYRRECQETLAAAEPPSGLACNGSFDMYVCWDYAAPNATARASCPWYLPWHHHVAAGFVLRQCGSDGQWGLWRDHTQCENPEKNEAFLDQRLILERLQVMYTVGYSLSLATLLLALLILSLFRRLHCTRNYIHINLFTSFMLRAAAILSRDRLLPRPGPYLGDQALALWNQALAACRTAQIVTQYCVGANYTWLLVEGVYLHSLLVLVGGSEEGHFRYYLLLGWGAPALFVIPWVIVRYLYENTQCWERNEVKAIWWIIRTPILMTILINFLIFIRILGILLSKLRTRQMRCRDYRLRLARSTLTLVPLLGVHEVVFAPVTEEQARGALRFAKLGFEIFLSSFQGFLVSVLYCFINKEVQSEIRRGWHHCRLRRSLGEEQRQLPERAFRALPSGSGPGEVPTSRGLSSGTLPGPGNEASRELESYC

human GIP receptor = biological target: T2, human GIP receptor (Homo sapiens, UniProt P48546); experiment: [125I]-GIP binding (SPA), human GIP receptor; conditions: read-out: hGIPR Ki, nM (SEM, n)
T2 construct: expressed in transfected cells; crude membranes
T2 sequence (P48546 22-466): T1 sequence (P48546 22-466)

human Gcg receptor = biological target: T3, human Gcg receptor (Homo sapiens, UniProt P47871); experiment: [125I]-Glucagon binding (SPA), human Gcg receptor; conditions: read-out: hGLcgR Ki, nM (SEM, n)
T3 construct: expressed in transfected cells; crude membranes
T3 sequence (P47871 26-477): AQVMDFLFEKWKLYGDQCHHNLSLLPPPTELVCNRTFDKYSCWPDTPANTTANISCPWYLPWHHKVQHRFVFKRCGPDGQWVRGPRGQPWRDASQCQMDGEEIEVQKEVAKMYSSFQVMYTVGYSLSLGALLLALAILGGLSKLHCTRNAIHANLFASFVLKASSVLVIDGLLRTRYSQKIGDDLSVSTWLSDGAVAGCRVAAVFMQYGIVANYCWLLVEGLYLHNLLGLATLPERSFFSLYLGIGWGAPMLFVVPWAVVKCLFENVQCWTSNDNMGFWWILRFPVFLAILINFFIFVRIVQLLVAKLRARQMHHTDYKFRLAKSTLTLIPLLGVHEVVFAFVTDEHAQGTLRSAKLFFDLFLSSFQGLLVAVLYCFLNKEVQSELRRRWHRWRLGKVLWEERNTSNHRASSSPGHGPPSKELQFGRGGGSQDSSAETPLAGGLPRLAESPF
Outline: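 Cell pellets were lysed in hypotonic Tris buffer, pH 7.5, homogenized, and spun at low then high speed to give crude membranes. Ki was derived from the fitted IC50.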

human GLP-1R = human GLP-1R (Homo sapiens, UniProt P43220); experiment: [125I]-GLP-1 binding (SPA), human GLP-1 receptor; design: expressed in transfected cells; crude membranes; conditions: read-out: hGLP1R Ki, (nM) (SEM, n)
Sequence of human GLP-1R (P43220 24-463): as the sequence (P43220 24-463) above
Outline: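 Frozen cell pellets are lysed on ice in hypotonic Tris buffer, pH 7.5, homogenized, and centrifuged to a membrane pellet resuspended at about 1 to 3 mg/mL. Binding is then measured in HEPES-based buffer at pH 7.4, and curves are fitted to give IC50 and Ki.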

CC[C@H](C)[C@H](NC(=O)[C@H](CCCCN)NC(=O)[C@H](CC(=O)O)NC(=O)[C@H](CC(C)C)NC(=O)[C@H](CC(C)C)NC(=O)[C@@H](NC(=O)[C@H](CO)NC(=O)[C@H](Cc1ccc(O)cc1)NC(=O)[C@H](CC(=O)O)NC(=O)[C@H](CO)NC(=O)[C@@H](NC(=O)[C@H](Cc1ccccc1)NC(=O)[C@@H](NC(=O)CNC(=O)[C@H](CCC(=O)O)NC(=O)C(C)(C)NC(=O)[C@@H](N)Cc1ccc(O)cc1)[C@@H](C)O)[C@@H](C)O)[C@@H](C)CC)C(=O)N[C@@H](C)C(=O)N[C@@H](CCC(N)=O)C(=O)N[C@@H](CCCCNC(=O)COCCOCCNC(=O)COCCOCCNC(=O)CC[C@H](NC(=O)CCCCCCCCCCCCCCCCCCC(=O)O)C(=O)O)C(=O)N[C@@H](CCC(=O)O)C(=O)N[C@@H](Cc1ccccc1)C(=O)N[C@H](C(=O)N[C@@H](CCC(N)=O)C(=O)N[C@@H](Cc1ccc(O)cc1)C(=O)N[C@@H](CC(C)C)C(=O)N[C@@H](CC(C)C)C(=O)N[C@@H](CCC(=O)O)C(=O)NC(C)(C)C(=O)NCC(=O)N1CCC[C@H]1C(=O)N[C@@H](CO)C(=O)N[C@@H](CO)C(=O)NCC(=O)N[C@@H](C)C(=O)N1CCC[C@H]1C(=O)N1CCC[C@H]1C(=O)N1CCC[C@H]1C(=O)N[C@@H](CO)C(N)=O)[C@@H](C)CC [Example 14] (H-Y[Aib]EGTFTSDYSILLDKIAQK([AEEA-AEEA-γGlu-C20 diacid])EFIQYLLE[Aib]GPSSGAPPPS-NH2; N-terminus assumed)
EC50 [1]: 1.87 nM | EC50 [2]: 0.284 nM | Ki (human GIP receptor): 0.0494 nM | Ki (human Gcg receptor): 160 nM | Ki (human GLP-1R): 29.6 nM

CC[C@H](C)[C@H](NC(=O)[C@H](Cc1ccccc1)NC(=O)[C@H](C)NC(=O)C(C)(C)NC(=O)[C@H](CCC(N)=O)NC(=O)[C@H](C)NC(=O)[C@H](CCCCNC(=O)COCCOCCNC(=O)COCCOCCNC(=O)CC[C@H](NC(=O)CCCCCCCCCCCCCCCCCCC(=O)O)C(=O)O)NC(=O)[C@H](CCCCN)NC(=O)[C@H](CC(=O)O)NC(=O)[C@H](CC(C)C)NC(=O)[C@H](CC(C)C)NC(=O)[C@@H](NC(=O)[C@H](CO)NC(=O)[C@H](Cc1ccc(O)cc1)NC(=O)[C@H](CC(=O)O)NC(=O)[C@H](CO)NC(=O)[C@@H](NC(=O)[C@H](Cc1ccccc1)NC(=O)[C@@H](NC(=O)CNC(=O)[C@H](CCC(=O)O)NC(=O)C(C)(C)NC(=O)[C@@H](N)Cc1c[nH]cn1)[C@@H](C)O)[C@@H](C)O)[C@@H](C)CC)C(=O)N[C@@H](CCC(=O)O)C(=O)N[C@@H](Cc1ccc(O)cc1)C(=O)N[C@@H](CC(C)C)C(=O)N[C@@H](CC(C)C)C(=O)N[C@@H](CCC(=O)O)C(=O)NC(C)(C)C(=O)NCC(=O)N1CCC[C@H]1C(=O)N[C@@H](CO)C(=O)N[C@@H](CO)C(=O)NCC(=O)N[C@@H](C)C(=O)N1CCC[C@H]1C(=O)N1CCC[C@H]1C(=O)N1CCC[C@H]1C(=O)N[C@@H](CO)C(N)=O [Example 15] (H-H[Aib]EGTFTSDYSILLDKK([AEEA-AEEA-γGlu-C20 diacid])AQ[Aib]AFIEYLLE[Aib]GPSSGAPPPS-NH2)
EC50 [1]: 0.0336 nM | EC50 [2]: 0.613 nM | Ki (human GIP receptor): 0.284 nM | Ki (human Gcg receptor): 130 nM | Ki (human GLP-1R): 2.19 nM

CC[C@H](C)[C@H](NC(=O)[C@H](Cc1ccccc1)NC(=O)[C@H](C)NC(=O)C(C)(C)NC(=O)[C@H](CCC(N)=O)NC(=O)[C@H](C)NC(=O)[C@H](CCCCNC(=O)COCCOCCNC(=O)COCCOCCNC(=O)CC[C@H](NC(=O)CCCCCCCCCCCCCCCCCCC(=O)O)C(=O)O)NC(=O)[C@H](CCCCN)NC(=O)[C@H](CC(=O)O)NC(=O)[C@H](CC(C)C)NC(=O)[C@H](CC(C)C)NC(=O)[C@@H](NC(=O)[C@H](CO)NC(=O)[C@H](Cc1ccc(O)cc1)NC(=O)[C@H](CC(=O)O)NC(=O)[C@H](CO)NC(=O)[C@@H](NC(=O)[C@H](Cc1ccccc1)NC(=O)[C@@H](NC(=O)CNC(=O)[C@H](CCC(=O)O)NC(=O)C(C)(C)NC(=O)[C@@H](N)Cc1c[nH]cn1)[C@@H](C)O)[C@@H](C)O)[C@@H](C)CC)C(=O)N[C@@H](CCC(=O)O)C(=O)N[C@@H](Cc1ccc(O)cc1)C(=O)N[C@@H](CC(C)C)C(=O)N[C@H](C(=O)N[C@@H](CCC(=O)O)C(=O)NC(C)(C)C(=O)NCC(=O)N1CCC[C@H]1C(=O)N[C@@H](CO)C(=O)N[C@@H](CO)C(=O)NCC(=O)N[C@@H](C)C(=O)N1CCC[C@H]1C(=O)N1CCC[C@H]1C(=O)N1CCC[C@H]1C(=O)N[C@@H](CO)C(N)=O)[C@@H](C)CC [Example 16] (H-H[Aib]EGTFTSDYSILLDKK([AEEA-AEEA-γGlu-C20 diacid])AQ[Aib]AFIEYLIE[Aib]GPSSGAPPPS-NH2)
EC50 [1]: 0.0437 nM | EC50 [2]: 0.975 nM | Ki (human GIP receptor): 0.0841 nM | Ki (human Gcg receptor): 371 nM | Ki (human GLP-1R): 2.78 nM

CC[C@H](C)[C@H](NC(=O)[C@H](CCCCN)NC(=O)[C@H](CC(=O)O)NC(=O)[C@H](CC(C)C)NC(=O)[C@H](CC(C)C)NC(=O)[C@@H](NC(=O)[C@H](CO)NC(=O)[C@H](Cc1ccc(O)cc1)NC(=O)[C@H](CC(=O)O)NC(=O)[C@H](CO)NC(=O)[C@@H](NC(=O)[C@H](Cc1ccccc1)NC(=O)[C@@H](NC(=O)CNC(=O)[C@H](CCC(=O)O)NC(=O)C(C)(C)NC(=O)[C@@H](N)Cc1c[nH]cn1)[C@@H](C)O)[C@@H](C)O)[C@@H](C)CC)C(=O)N[C@@H](C)C(=O)N[C@@H](CCC(N)=O)C(=O)N[C@@H](CCCCNC(=O)COCCOCCNC(=O)COCCOCCNC(=O)CC[C@H](NC(=O)CCCCCCCCCCCCCCCCCCC(=O)O)C(=O)O)C(=O)N[C@@H](C)C(=O)N[C@@H](Cc1ccccc1)C(=O)N[C@H](C(=O)N[C@@H](CCC(=O)O)C(=O)N[C@@H](Cc1ccc(O)cc1)C(=O)N[C@@H](CC(C)C)C(=O)N[C@@H](CC(C)C)C(=O)N[C@@H](CCC(=O)O)C(=O)NC(C)(C)C(=O)NCC(=O)N1CCC[C@H]1C(=O)N[C@@H](CO)C(=O)N[C@@H](CO)C(=O)NCC(N)=O)[C@@H](C)CC [Example 17] (H-H[Aib]EGTFTSDYSILLDKIAQK([AEEA-AEEA-γGlu-C20 diacid])AFIEYLLE[Aib]GPSSG-NH2; N-terminus assumed)
EC50 [1]: 0.152 nM | EC50 [2]: 5.81 nM | Ki (human GIP receptor): 0.606 nM | Ki (human Gcg receptor): 261 nM | Ki (human GLP-1R): 7.63 nM

CC[C@H](C)[C@H](NC(=O)[C@H](CC(C)C)NC(=O)[C@H](Cc1ccc(O)cc1)NC(=O)[C@H](CCC(=O)O)NC(=O)[C@@H](NC(=O)[C@H](Cc1ccccc1)NC(=O)[C@H](C)NC(=O)C(C)(C)NC(=O)[C@H](CCC(N)=O)NC(=O)[C@H](C)NC(=O)[C@H](CCCCNC(=O)COCCOCCNC(=O)COCCOCCNC(=O)CC[C@H](NC(=O)CCCCCCCCCCCCCCCCCCC(=O)O)C(=O)O)NC(=O)[C@H](CCCCN)NC(=O)[C@H](CC(=O)O)NC(=O)[C@H](CC(C)C)NC(=O)[C@](C)(CC(C)C)NC(=O)[C@@H](NC(=O)[C@H](CO)NC(=O)[C@H](Cc1ccc(O)cc1)NC(=O)[C@H](CC(=O)O)NC(=O)[C@H](CO)NC(=O)[C@@H](NC(=O)[C@H](Cc1ccccc1)NC(=O)[C@@H](NC(=O)CNC(=O)[C@H](CCC(=O)O)NC(=O)C(C)(C)NC(=O)[C@@H](N)Cc1ccc(O)cc1)[C@@H](C)O)[C@@H](C)O)[C@@H](C)CC)[C@@H](C)CC)C(=O)N[C@@H](CCC(=O)O)C(=O)NCC(=O)NCC(=O)N1CCC[C@H]1C(=O)N[C@@H](CO)C(=O)N[C@@H](CO)C(=O)NCC(=O)N[C@@H](C)C(=O)N1CCC[C@H]1C(=O)N1CCC[C@H]1C(=O)N1CCC[C@H]1C(=O)N[C@@H](CO)C(N)=O [Example 20]
EC50 [1]: 0.117 nM | EC50 [2]: 0.0556 nM | Ki (human GIP receptor): 0.0849 nM | Ki (human Gcg receptor): 228 nM | Ki (human GLP-1R): 3.3 nM
